# Results from publication PMC9800617, “Pharmacokinetics/pharmacodynamics of polymyxin B in patients with bloodstream infection caused by carbapenem-resistant Klebsiella pneumoniae” (Frontiers in Pharmacology, 2022).
# Read-outs that look alike come from different tables or passages of the source. Bridge positions count the residues as written; N and C are the ends. Square brackets hold non-standard residues; d marks the D form. Peptide text beside a SMILES is read from it. * marks the point of attachment. X1 = CC[C@H](C)CCCCC(=O)*; Dab = NCC[C@H](N)C(=O)O
# Experiments:
# [1] = Plasma pharmacokinetics of polymyxin B in CRKP BSI patients (LC-MS/MS; non-compartmental and compartmental); type: in vivo, human; details: mean ± SD
# Description: Polymyxin B Sulphate for Injection (Lot No. A-1411137) containing 72.0% polymyxin B1 and B1-Ile and 12.1% polymyxin B2 was provided by SPH No. 1 Biochemical & Pharmaceutical Co., Ltd. (Shanghai, China). Prior to administration, polymyxin B was dissolved in 50–100 ml normal saline as per the manufacturer’s instructions then administered intravenously at a dose of 1.25 mg/kg every 12 h (2-h infusion) with an initial loading dose of 2.5 mg/kg (3-h infusion). Treatment lasted for 7–14 days as per treatment guidelines ([Rhodes et al., 2017]). Adverse events were closely monitored and recorded for each patient.
# Blood samples (4 mL) for pharmacokinetic analysis were collected in tubes with EDTA-K2 as the anticoagulant immediately before and after administration of the polymyxin B loading dose (the first dose) and immediately before administration of the second dose. Subsequent blood samples were collected during the second visit (5th, 6th or 7th dosing) consisting of a sample immediately prior to the infusion and at .5, 1, 2, 3, 4, 5, 6, 7, 8, 10, and 12 h following the commencement of the infusion. If possible, a final blood sample was collected 24 h after the commencement of the last infusion. All blood samples were centrifuged (4°C, 2,000 g) and plasma collected and stored at −80°C until analysis.
# The concentrations of polymyxin B1 (including B1-Ile) and polymyxin B2 were determined using a validated liquid chromatography-tandem mass spectrometry (LC-MS/MS) method ([Liu et al., 2020]). […] The calibration range was .050–5.00 mg/L for polymyxin B1 and .011–.549 mg/L for polymyxin B2. The concentration of polymyxin B was calculated by the sum of concentrations of polymyxin B1 and B2 using molar terms and their molecular weights (polymyxin B1 is 1203.48 g/mol, polymyxin B2 is 1189.45 g/mol).
# The PK parameters of polymyxin B were calculated using Phoenix WinNonlin 8.0 (Certara^TM, USA) with non-compartmental and compartmental methods. PPK analysis was conducted using NONMEM 7.4 (Icon Development Solutions, Ellicott City, MD) with G77 FORTRAN complier and FOCEI algorithm. Results from BSI patients in the present study and healthy subjects in a previous study were combined ([Liu et al., 2021]). One- and two-compartment models were tested during development of the base model. Models were developed and evaluated based on an objective function value and goodness-of-fit plots. The covariates were selected using a forward inclusion and backward elimination strategy. The screened covariates were sex, age, body weight, height, body mass index (BMI), creatinine clearance (CLcr), albumin, hemoglobin, total protein, total bilirubin, serum alanine aminotransferase (ALT), serum aspartate aminotransferase (AST), serum creatinine, Sequential Organ Failure Assessment (SOFA) score, and disease state (BSI patients were defined as 1 and healthy subjects were defined as 2). Covariates were included in the model based on the criteria of OFV requiring a decrease of 3.84 (p < .05) in the forward inclusion and an increase of greater of 10.83 (p < .001) in the backward elimination. Bootstrap sampling and visual predictive checks (VPCs) were utilized to validate the robustness of the final model.
# [2] = cited from earlier work
# Description: Our study is the first to specifically examine patients with BSI using the recommended dosage regimen of polymyxin B (2.5–3.0 mg/kg/d) ([Tsuji et al., 2019]). Previous studies utilizing PPK models to examine polymyxin B PK have included primarily critically ill patients with various medical conditions or patients with cystic fibrosis, and have employed a wide range of doses (0.45–3.38 mg/kg/day) ([Sandri et al., 2013]; [Avedissian et al., 2018]; [Kubin et al., 2018]; [Manchandani et al., 2018]; [Miglis et al., 2018]; [Yu et al., 2021]).
# [3] = healthy Chinese subjects, ref Liu et al., 2021, cited from earlier work
# From the text: Neurotoxicity is another major dose-limiting factor for the polymyxins, although it often goes unreported given many patients receiving polymyxins are mechanically ventilated which makes assessment difficult. Polymyxin-induced neurotoxicity is very likely dose-dependent and is characterized by symptoms such as dizziness, vertigo, visual disturbances, confusion, hallucinations, seizures, ataxia, facial and peripheral parenthesis, and pruritus ([Falagas and Kasiakou, 2006]; [Weinstein et al., 2009]; [Wahby et al., 2010]; [Honore et al., 2013]). While neurologic side effects such as parenthesis h ...
# [4] = human, steady state, 1.25 mg/kg/12 h (2-h iv infusion), plasma, LC-MS/MS, non-compartmental
# [5] = healthy subjects, ref Liu et al., 2021
smiles,measurement,setting,value
CC[C@H](C)CCCCC(=O)N[C@@H](CCN)C(=O)N[C@H](C(=O)N[C@@H](CCN)C(=O)N[C@H]1CCNC(=O)[C@H]([C@@H](C)O)NC(=O)[C@H](CCN)NC(=O)[C@H](CCN)NC(=O)[C@H](CC(C)C)NC(=O)[C@@H](Cc2ccccc2)NC(=O)[C@H](CCN)NC1=O)[C@@H](C)O [polymyxin B] (X1-[Dab]T[Dab][Dab][Dab][dF]L[Dab][Dab]T; lactam 4-C),Cmax,"[1]; human, 2.5 mg/kg loading dose, 3-h iv infusion, plasma, LC-MS/MS, read-out: Cmax following the loading dose",5530 ± 1800 ng/mL
same,level at 12 h,"[1]; human, 2.5 mg/kg loading dose, 3-h iv infusion, plasma, LC-MS/MS, read-out: Cmin (12 h) following the loading dose",1620 ± 410 ng/mL
same,clearance,"[1]; human, plasma, iv, two-compartmental analysis, read-out: CL, clearance from the central compartment (converted)",0.433 mL/min/kg
same,Vd,[1]; [4],0.49 ± 0.142 L/kg
same,half-life,[1]; [4],12.5 ± 3.11 h
same,AUC(0-t),"[1]; human, steady state, 1.25 mg/kg/12 h (2-h iv infusion), plasma, LC-MS/MS, non-compartmental, read-out: AUC12h",39800 ± 12500 ng·h/mL
same,clearance,"[1]; human, steady state, 1.25 mg/kg/12 h (2-h iv infusion), plasma, LC-MS/MS, non-compartmental, read-out: CL (converted)",0.467 mL/min/kg
same,Cmax,"[1]; human, steady state, 1.25 mg/kg/12 h (2-h iv infusion), plasma, LC-MS/MS, non-compartmental, read-out: Cmax",5420 ± 1690 ng/mL
same,"Cavg (Css,avg)","[1]; steady state, 1.25 mg/kg/12 h (2-h iv infusion), plasma, LC-MS/MS, non-compartmental",3350 ± 1060 ng/mL
same,"K10, elimination rate constant",[1]; two-compartmental analysis,0.165 ± 0.065 h⁻¹
same,"K12, rate constant central to peripheral compartment",[1]; two-compartmental analysis,0.702 ± 0.395 h⁻¹
same,"K21, rate constant peripheral to central compartment",[1]; two-compartmental analysis,0.214 ± 0.137 h⁻¹
same,"V1, central volume of distribution",[1]; two-compartmental analysis,0.163 ± 0.036 L/kg
same,"V2, peripheral volume of distribution",[1]; two-compartmental analysis,0.565 ± 0.243 L/kg
same,clearance,[2]; [5],0.433 ± 0.067 mL/min/kg
same,half-life,[2]; [5],5.55 ± 0.942 h
same,volume of distribution,[2]; [5],0.204 ± 0.026 L/kg
same,dose excreted unchanged in the urine,"[2]; ref Zavascki et al., 2008",≤ 4%
same,"subjects with perioral paraesthesia, dizziness, and numbness of extremities","[3]; single dose 0.75 mg/kg, 1-h infusion, 7 of 10",70%
same,"subjects with perioral paraesthesia, dizziness, and numbness of extremities","[3]; single dose 1.5 mg/kg, 1.5-h infusion",all subjects
